Assay results from US20040204383A1, “Lysophosphatidic acid analogs and inhibition of neointima formation” (priority 2003, published 2004).

Experiments:
CD36 = test: Immunostaining for CD36 in treated rat carotid arteries; assay type: in vivo; settings: LPA 2.5 μM, 4 wk after treatment; LDL data not shown
Description: (§1) FIGS. 7A-D show immunohistological staining for PPARγ in rat carotid arteries. Only a few nuclei show PPARγ immunoreactivity in a carotid artery 4 wk after treatment with 2.5 μM LPA 20:0 (FIG. 7A). In contrast, the multilayered neointima elicited by LPA 20:4 expresses high levels of PPARγ immunoreactivity (FIG. 7B). Activation of PPARγ within neointima in LPA 20:4-treated carotid arteries is indicated by the strong expression of CD36 in a distribution that overlaps that of PPARγ (FIG. 7D). […] Anti-PPARγ and anti-CD36 were from Santa Cruz Biotechnology, Inc. Bars, 250 μm.
The scavenger receptor CD36, a PPARγ-regulated gene, contains a PPAR response element within its promoter between base pairs −273 and −261. CD36 plays a critical role in lipid uptake by binding and transporting oxidized lipids, including minimally oxidized LDL. Thus, this pathway could provide a source of ligands, such as lysophosphatidic acid, alkyl-GP, and AZ-PC, to sustain PPARγ activation. Acyl and alkyl forms of lysophosphatidic acid both accumulate in human atherosclerotic plaques. Lysophosphatidic acid activates CD36-mediated lipid uptake into macrophages through a PPARγ-PPRE-dependent mechanism.

PPARγ = test: Immunohistological staining for PPARγ in treated rat carotid arteries; assay type: in vivo; settings: LPA 2.5 μM, 4 wk after treatment; LDL data not shown
Description: as §1
Expression of PPARγ protein was examined in rat carotid arteries exposed to lysophosphatidic acid or minimally oxidized LDL.

rat carotid arteries = test: Induction of neointima formation in rat carotid artery by topical application; assay type: in vivo; settings: for neointimal growth: 2.5 μM, 1 h exposure, monitored up to 8 wk (FIG. 4A)
Source text: Briefly, the right carotid artery of anesthetized adult male Sprague-Dawley rats (250-300 g) was surgically exposed. The caudal origin of the common carotid artery was ligated using a vessel clip, followed by exposure and ligation of the internal carotid artery above the bifurcation. The external carotid artery was exposed, and a polyethylene catheter was inserted such that it never reached the common carotid artery, thereby avoiding mechanical injury to the vessel. The clip occluding the common carotid artery was temporarily released, and the vessel was rinsed with a retrograde injection of 500 μl physiological saline to remove residual blood. The vessel was again clipped, and 100 μl of treatment solution was injected. After 60 min of incubation, the cannula was withdrawn, the external carotid artery was ligated, and blood flow was restored. Animals were allowed to recover and were killed 7-56 d later by intracardiac perfusion of 10% buffered formaldehyde (pH 7.4). The common carotid artery from the […] to the bifurcation was dissected, embedded in paraffin, and processed for histological analysis. Five μm-thick sections were cut and stained with hematoxylin and eosin or Masson's trichrome stain. Intima to media ratios were quantified using an image analysis system (Scion Image CMS-800).

[1] = test system: vascular smooth muscle cells; test: Phenotypic modulation and dedifferentiation of cultured VSMCs (morphology, hCAD mRNA); assay type: cell-based, rat; settings: for morphology of VSMCs: 1 μM for 3 days, cultures established in 2 ng/ml IGF-1
Description: Expression of lysophosphatidic acid-specific G protein-coupled plasma membrane receptors in rat carotid arteries was examined by RT-PCR as described earlier by Wang et al. (2002). To quantify heavy caldesmon mRNA, quantitative PCR was performed applying the real-time SYBR Green PCR method using a Sequence Detection System Model 7700 (Applied Biosystems) instrument. Rat heavy caldesmon and GAPDH (reference control mRNA)-specific primers were designed with Primer Express Software (Applied Biosystems), and forward and reverse primers were as follows: 5′-[…]-3′ (SEQ ID NO:1) and 5′-[…]-3′ (SEQ ID NO:2) for heavy caldesmon; 5′-[…]-3′ (SEQ ID NO:3) and 5′-[…]-3′ (SEQ ID NO:4) for GAPDH. Amplification reaction was performed with SYBR Green PCR Master Mix (Applied Biosystems) following the manufacturer's protocol. mRNA abundance calculation was based on Ct values as described previously (Wang et al., 2002). The expression level of heavy caldesmon mRNA was normalized to GAPDH mRNA. Each PCR reaction was performed at least three times, and the result was expressed as mean±SEM. Statistical comparison of mRNA expression was evaluated by ANOVA, and P<0.05 was considered statistically significant.
It has been reported that unsaturated lysophosphatidic acid species induced phenotypic modulation of cultured vascular smooth muscle cells (VSMCs). Because the neointimal response and PPARγ display a similar selectivity for unsaturated lysophosphatidic acid, that activation of PPARγ plays a role in the phenotypic dedifferentiation is hypothesized herein. This hypothesis was tested in a culture system in which IGF-1 maintains the differentiated spindle shape of vascular smooth muscle cells as indicated by high levels of heavy caldesmon (hCAD) mRNA expression.

[2] = test system: CD36(−273)-Rluc reporter gene; test: CD36(−273)-Rluc reporter gene (with PPRE) in CV-1 cells; assay type: cell-based; settings: 10 μM, CV-1 cells (FIG. 7E)
Description: (§2) Therefore, the investigators compared the unique in vivo neointima-eliciting lysophosphatidic acid structure-activity relationship with that of PPARγ using an in vitro assay that utilizes an acyl-coenzyme A oxidase-luciferase (PPRE-Acox-Rluc) reporter gene construct containing a peroxisome proliferator-activated receptor response element. CV-1 cells were plated in 96-well plates (5×10^3 cells per well) in DME supplemented with 10% FBS. The next day, the cells were transiently transfected with 125 ng of pGL3-PPRE-acyl-CoA oxidase (Acox)-renilla luciferase), or 125 ng pGL3-CD36(−273), or pGL3-CD36(−261), 62.5 ng of pcDNAI-PPARγ, and 12.5 ng of pSV-β-galactosidase (Promega) using LipofectAMINE™ 2000 (Invitrogen). Twenty four hours after transfection, cells were treated with 1% FBS-supplemented OptiMEMI™ (Invitrogen) containing DMSO or test compound (10 μM) in DMSO for 20 h. Luciferase and β-galactosidase activities were measured with the Steady-Glo® Luciferase Assay System (Promega) and the Galacto-Light Plus™ System (Applied Biosystems), respectively. Samples were run in quadruplicate, and the mean±SE were calculated. Data are representative of at least three independent transfections. Student's t test was used for null hypothesis testing, and P<0.05 was considered significant.

[3] = test system: CD36(−261)-Rluc reporter gene; test: CD36(−261)-Rluc reporter gene (deleted PPRE) in CV-1 cells; assay type: cell-based; settings: 10 μM, CV-1 cells (FIG. 7E)
Description: as §2

LPA1 = LPA1 (Homo sapiens, UniProt Q92633); settings: cited from earlier work
LPA2 = LPA2 (Homo sapiens, UniProt Q9HBW0); settings: cited from earlier work
LPA3 = biological target: T1, LPA3 (Homo sapiens, UniProt Q9UBY5); settings: cited from earlier work
T1 sequence (Q9UBY5 1-353): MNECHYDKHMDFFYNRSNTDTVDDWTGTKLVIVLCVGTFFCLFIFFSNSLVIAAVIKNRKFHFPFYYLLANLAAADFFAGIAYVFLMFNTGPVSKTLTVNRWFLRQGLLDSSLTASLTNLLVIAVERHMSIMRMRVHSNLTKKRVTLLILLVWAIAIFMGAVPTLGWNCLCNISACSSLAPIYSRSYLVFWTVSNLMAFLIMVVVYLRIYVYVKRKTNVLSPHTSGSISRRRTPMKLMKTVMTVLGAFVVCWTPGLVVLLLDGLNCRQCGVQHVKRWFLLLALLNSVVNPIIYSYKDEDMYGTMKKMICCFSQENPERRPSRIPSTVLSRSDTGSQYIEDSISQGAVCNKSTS

Chain of LPA2 (Q9HBW0 whole entry, species assumed): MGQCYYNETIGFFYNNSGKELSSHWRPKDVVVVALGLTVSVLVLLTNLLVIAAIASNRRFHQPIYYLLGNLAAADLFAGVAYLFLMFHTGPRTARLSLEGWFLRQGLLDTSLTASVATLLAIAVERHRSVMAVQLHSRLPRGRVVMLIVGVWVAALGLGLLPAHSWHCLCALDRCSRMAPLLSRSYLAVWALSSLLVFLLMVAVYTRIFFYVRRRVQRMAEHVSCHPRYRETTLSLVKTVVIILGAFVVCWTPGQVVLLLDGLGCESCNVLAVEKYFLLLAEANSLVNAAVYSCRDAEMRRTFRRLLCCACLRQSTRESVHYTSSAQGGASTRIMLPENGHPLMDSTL
Chain of LPA1 (Q92633 whole entry, species assumed): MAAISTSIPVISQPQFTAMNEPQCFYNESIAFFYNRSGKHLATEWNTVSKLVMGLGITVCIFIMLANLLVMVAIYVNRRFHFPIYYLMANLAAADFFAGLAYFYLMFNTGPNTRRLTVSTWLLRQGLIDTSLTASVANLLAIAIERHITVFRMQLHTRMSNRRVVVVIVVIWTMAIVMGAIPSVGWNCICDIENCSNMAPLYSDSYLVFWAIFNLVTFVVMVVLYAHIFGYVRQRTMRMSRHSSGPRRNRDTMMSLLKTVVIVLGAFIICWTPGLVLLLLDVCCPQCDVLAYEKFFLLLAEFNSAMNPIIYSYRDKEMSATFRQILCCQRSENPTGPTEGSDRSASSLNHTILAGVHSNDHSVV

Row | SMILES | CD36 immunoreactivity in carotid artery (CD36) | PPARγ immunoreactivity in carotid artery (PPARγ) | neointimal growth (rat carotid arteries) | morphology of VSMCs [1] | stimulation of CD36(−273)-Rluc reporter gene [2] | neointima formation when delivered as BSA complexes (rat carotid arteries; Rosi 10 μM, LPA 20:4 2.5 μM, 10 μM albumin, 2 wk after treatment (FIG. 7F)) | neointima formation when delivered in rat plasma or serum (rat carotid arteries; Rosi 10 μM, LPA 20:4 2.5 μM, 2 wk after treatment (FIG. 7F)) | decrease of hCAD mRNA expression ([1]; quantitative RT-PCR, day 5 (FIG. 8I)) | stimulation of CD36(−261)-Rluc reporter gene (deleted PPRE) [3] | activity at LPA1 (LPA1) | activity at LPA2 (LPA2) | activity at LPA3 (LPA3)
1 | CCCCCCCCCCCCCCCCCCCC(=O)OC[C@@H](O)COP(=O)(O)O [LPA 20:0] | no increase in immunoreactivity | only a few stained nuclei | completely inactive | maintained the spindle-like differentiated morphology |  |  |  |  |  |  |  | 
2 | CCCCC/C=C\C/C=C\C/C=C\C/C=C\CCCC(=O)OC[C@@H](O)COP(=O)(O)O [LPA 20:4] | intense CD36 immunoreactivity | intense PPARγ immunoreactivity | elicited progressive neointimal growth | developed a fibroblast-like flattened morphology | elicited significant stimulation | elicited neointima formation | no neointima formation was detected | most pronounced | neither Rosi nor lysophosphatidic acid 20:4 activated the reporter gene |  |  | 
3 | CCCCCCCCCCCCOP(=O)(O)O [fatty alcohol phosphate 12:0] |  |  |  |  |  |  |  |  |  | without any effect | specific agonist | antagonist
